Like-named read-outs stand apart in the source and are kept apart here.
Legend:
[1] = system: colonic Treg (cTreg); test: Antibiotic (vancomycin) treatment of SPF mice with or without SCFA; format: in vivo; settings: SPF mice, vancomycin alone in drinking water
Procedure: Science 341: 1645 (2013). […] The crude cell suspension was loaded onto a 40%/90% Percoll (GE Healthcare) gradient and centrifuged at 720 x g for 25 min at room temperature with acceleration and brake turned off. LP lymphocytes were collected from the 40%/90% interface. Intracellular staining of the transcription factors Foxp3, Helios and T-bet was performed using the Foxp3 Fix/Perm Buffer Set (Biolegend). For detection of intracellular cytokines, cells were first stimulated for 4 h with 50 ng/ml PMA and 1 μg/ml ionomycin in the presence of Brefeldin A (All obtained from Sigma), followed by staining for surface markers. Cells were then fixed and permeabilized using the Foxp3 Fix/Perm Buffer Set (Biolegend) and stained for intracellular cytokines. The following antibodies were used: […] All antibodies were obtained from Biolegend unless otherwise noted. Flow cytometry was performed using LSRII and data were analyzed with FlowJo software (TreeStar, Inc.). Cell sorting was performed using a […] at the Dana-Farber Cancer Institute Flow Cytometry Core.

[2] = mouse, in vivo
Procedure: At the conclusion of the experiment mice were removed from isolators and processed immediately.
Cecal or small intestinal contents were collected immediately after animals were sacrificed and flash frozen in N2(1). Samples were mashed in 500 μl HPLC grade water and centrifuged at >14,000 x g, the resulting supernatant was then passed through a 0.22 μm syringe filter to remove bacterial cells and debris. Samples we then acidified with 1/10 volume of 0.01M H2SO4, heated and passed through a condenser to isolate volatile compounds within a sample. SCFA analyses were performed using an Agilent 1200 series HPLC and a Poroshell 120 SB C18 column (2.7 μm, 3.0×100mm) with guard column (Agilent Technologies). Sulfuric acid (0.01M) was used as the mobile phase. SCFA concentrations were weight corrected.

[3] = Stability of SCFA mix in mouse water bottle over time; format: physicochemical; settings: for SCFA mix in mouse water bottle over time, Day 1 / SCFA mix in mouse water bottle over time, Day 4 / SCFA mix in mouse water bottle over time, Day 7 / SCFA mix in mouse water bottle over time, Day 10 / SCFA mix in mouse water bottle over time, Day 14 / SCFA mix in mouse water bottle over time, Day 90: input 200 mM
Procedure: Mice were treated for 21 days with either sodium acetate (150 mM), sodium propionate (150 mM), sodium butyrate (100 mM) or a SCFA mix (67.5 mM acetate, 40 mM Butyrate, 25.9 mM Propionate) in the drinking water. In in vivo drinking water treatment experiments, control mice received pH and sodium-matched water. At the conclusion of the experiment mice were removed from isolators and processed immediately.

With `CN[C@H](CC(C)C)C(=O)N[C@H]1C(=O)N[C@@H](CC(N)=O)C(=O)N[C@H]2C(=O)N[C@H]3C(=O)N[C@H](C(=O)N[C@H](C(=O)O)c4cc(O)cc(O)c4-c4cc3ccc4O)[C@H](O)c3ccc(c(Cl)c3)Oc3cc2cc(c3O[C@@H]2O[C@H](CO)[C@@H](O)[C@H](O)[C@H]2O[C@H]2C[C@](C)(N)[C@H](O)[C@H](C)O2)Oc2ccc(cc2Cl)[C@H]1O` [vancomycin, reference compound] the cTreg level [1] was “reduced”.

In the case of `CCCC(=O)O` [Butyrate, butyric acid], the “SCFA levels, cecal contents, SPF + B” value ([2]; BALB/c, 2 weeks) is reported as 29.78 ± 6.202 µmol/g, the “SCFA levels, cecal contents, GF + B” value ([2]; BALB/c, 21 days) is reported as 11.46 ± 1.46 µmol/g and the “SCFA levels, cecal contents, GF + Mic” value ([2]; BALB/c, 21 days) is reported as 20.6 ± 3.96 µmol/g. The “SCFA levels, SPF SI” value [2] was 7.183 ± 2.39 µmol/g, the “SCFA levels, cecal contents, ASF” value [2] was 16.89 ± 1.46 µmol/g and the “SCFA levels, cecal contents, GF” value [2] was 2.13 ± 0.598 µmol/g. The “SCFA levels, cecal contents, SPF” value [2] was 18.52 ± 4.92 µmol/g, the “SCFA levels, SPF SI + P” value ([2]; 2 weeks) was 6.45 ± 2.11 µmol/g and the “SCFA levels, cecal contents, SPF + Vanco” value ([2]; 4 weeks) was 1.04 ± 0.903 µmol/g. The “SCFA mix in mouse water bottle over time, Input (Day 0)” value [3] was 200 mM, the “SCFA mix in mouse water bottle over time, Day 1” value [3] was 203.09 mM and the “SCFA mix in mouse water bottle over time, Day 4” value [3] was 202.85 mM. For the same compound, the “SCFA mix in mouse water bottle over time, Day 7” value [3] was 202.27 mM, the “SCFA mix in mouse water bottle over time, Day 10” value [3] was 202.69 mM and the “SCFA mix in mouse water bottle over time, Day 14” value [3] was 202.19 mM. For the same compound, the “SCFA mix in mouse water bottle over time, Day 90” value [3] was 38 mM.

For `CC(=O)O` [Acetate, acetic acid], the “SCFA levels, SPF SI” value [2] was 15.19 ± 9.2 µmol/g, the “SCFA levels, SPF SI + P” value [2] was 15.46 ± 3.69 µmol/g and the “SCFA levels, cecal contents, ASF” value [2] was 28.69 ± 8.32 µmol/g. The “SCFA levels, cecal contents, GF” value [2] was 2.82 ± 0.534 µmol/g, the “SCFA levels, cecal contents, GF + A” value [2] was 16.18 ± 4.65 µmol/g and the “SCFA levels, cecal contents, GF + Mic” value [2] was 20.83 ± 0.47 µmol/g. For the same compound, the “SCFA levels, cecal contents, SPF” value [2] was 40.66 ± 5.86 µmol/g, the “SCFA levels, cecal contents, SPF + A” value [2] was 53.95 ± 1.91 µmol/g and the “SCFA levels, cecal contents, SPF + Vanco” value [2] was 8.63 ± 1.73 µmol/g. For the same compound, the “SCFA mix in mouse water bottle over time, Input (Day 0)” value [3] was 200 mM, the “SCFA mix in mouse water bottle over time, Day 1” value [3] was 195 mM and the “SCFA mix in mouse water bottle over time, Day 4” value [3] was 220.1 mM. For the same compound, the “SCFA mix in mouse water bottle over time, Day 7” value [3] was 192.2 mM, the “SCFA mix in mouse water bottle over time, Day 10” value [3] was 196.3 mM and the “SCFA mix in mouse water bottle over time, Day 14” value [3] was 202.5 mM. The “SCFA mix in mouse water bottle over time, Day 90” value [3] was 56.1 mM.

— patent US20170340588A1, “MODULATION OF REGULATORY T CELLS VIA G-COUPLED PROTEIN RECEPTOR 43” (President and Fellows of Harvard College, priority 2013, published 2017)
